# From US20080221132A1, “Multi-Functional Small Molecules as Anti-Proliferative Agents” (priority 2006, published 2008)
# Like-named read-outs stand apart in the source and are kept apart here.
# Experiments:
# VEGFR2 Kinase = VEGFR2 Kinase (Homo sapiens, UniProt P35968); test: Kinase panel (TABLE F), VEGFR2 Kinase; format: biochemical
# [1] = male, CD-1, mouse, in vivo, ip, 7 days
# Method: 7-day-multiple dosing MTD in mice • a. CD-1 mice, male, 24-26 gram • b. Dosing at 0, 50, 100, 200 mg/kg/d ip • c. 6 mice per group • d. Blood and organs will be collected 2 hr after last dosing on Day 7 for hematology
# (§5) Stock solution is diluted with 30% CAPTISOL before use.
# Lung_H292 = test: Cell proliferation assay (ATPlite), H292; format: cell-based; settings: Homo sapiens, NCI-H292; TABLE C; 72 hours, 0.5% fetal bovine serum, ATP content; read-out: IC50 grading, Lung_H292
# Method: (§1) A representative number of compounds were assayed against several different cell lines using the cell proliferation assay:
# (§2) Cell Proliferation Assay:
# (§3) Cancer cell lines were plated at 5,000 to 10,000 per well in 96-well flatted bottomed plates with various concentration of compounds. The cells were incubated with compounds for 72 hours in the presence of 0.5% of fetal bovine serum. Growth inhibition was accessed by adenosine triphosphate (ATP) content assay using Perkin Elmer ATPlite kit. ATPlite is an ATP monitoring system based on firefly luciferase. Briefly, 25 μl of mammalian cell lysis solution was added to 50 μl of phenol red-free culture medium per well to lyse the cells and stabilize the ATP. 25 μl of substrate solution was then added to the well and subsequently the luminescence was measured.
# Lung_H1703 = test: Cell proliferation assay (ATPlite), H1703; format: cell-based; settings: Homo sapiens, NCI-H1703; TABLE C; 72 hours, 0.5% fetal bovine serum, ATP content; read-out: IC50 grading, Lung_H1703
# Method: as §1, §2, §3
# [2] = system: Breast_MCF7 (MCF-7, breast adenocarcinoma); test: Cell proliferation assay (ATPlite), MCF7; format: cell-based; settings: Homo sapiens, TABLE C, 72 hours, 0.5% fetal bovine serum, ATP content, read-out: IC50 grading, Breast_MCF7
# Method: as §1, §2
# (§4) Cancer cell lines were plated at 5,000 to 10,000 per well in 96-well flatted bottomed plates with various concentration of compounds. […] Growth inhibition was accessed by adenosine triphosphate (ATP) content assay using Perkin Elmer ATPlite kit. ATPlite is an ATP monitoring system based on firefly luciferase. Briefly, 25 μl of mammalian cell lysis solution was added to 50 μl of phenol red-free culture medium per well to lyse the cells and stabilize the ATP. 25 μl of substrate solution was then added to the well and subsequently the luminescence was measured.
# Pancreas_Capan1 = test: Cell proliferation assay (ATPlite), Capan1; format: cell-based; settings: Homo sapiens, CAPAN-1; TABLE C; 72 hours, 0.5% fetal bovine serum, ATP content; read-out: IC50 grading, Pancreas_Capan1
# Method: as §1, §2, §3
# Lung_H1975 = test: Cell proliferation assay (ATPlite), H1975; format: cell-based; settings: Homo sapiens, NCI-H1975; TABLE C; 72 hours, 0.5% fetal bovine serum, ATP content; read-out: IC50 grading, Lung_H1975
# Method: as §1, §2, §3
# [3] = male, CD-1, mouse, in vivo, iv, 9 day
# Method: Single dosing MTD in mice • a. CD-1 mice, male, 24-26 gram • b. Dosing at 0, 50, 100, 200, 400 mg/kg, iv infusion 2 min • c. 8 mice per group
# as §5
# Pancreas_CFPAC = test: Cell proliferation assay (ATPlite), CFPAC; format: cell-based; settings: TABLE C; 72 hours, 0.5% fetal bovine serum, ATP content; read-out: IC50 grading, Pancreas_CFPAC
# Method: as §1, §2, §3
# in vivo = settings: male, CD-1, mouse, ip; for AUC: AUC (h * ng/ml)
# Method: Drug Preparation and Administration.
# Blood and tissue Sample Collection.
# Plasma Sample Extraction. Plasma samples were prepared by protein precipitation. An internal standard was added into plasma samples. […] The supernatant was then injected onto LC/MS/MS.
# Samples were compared to standards made in plasma. These standards were prepared by serial dilution.
# Tissue Sample Extraction. […] Tissues were homogenized in 0.8 ml water. An internal standard was added into the tissue homogenates.
# LC/MS/MS Analytical Methods.
# LC Conditions are shown below:
# FLT-3 Kinase = FLT-3 Kinase (Homo sapiens, UniProt P36888); test: Kinase panel (TABLE F), FLT-3 Kinase; format: biochemical
# Pancreas_HPAC = test: Cell proliferation assay (ATPlite), HPAC; format: cell-based; settings: Homo sapiens, TABLE C, 72 hours, 0.5% fetal bovine serum, ATP content, read-out: IC50 grading, Pancreas_HPAC
# Method: as §1, §2, §3
# Pancreas_BxPC3 = test: Cell proliferation assay (ATPlite), BxPC3; format: cell-based; settings: Homo sapiens, BXPC-3; TABLE C; 72 hours, 0.5% fetal bovine serum, ATP content; read-out: IC50 grading, Pancreas_BxPC3
# Method: as §1, §2, §3
# [4] = system: Prostate_22RV1 (22RV1, prostate carcinoma); test: Cell proliferation assay (ATPlite), 22RV1; format: cell-based; settings: Homo sapiens
# Method: as §1, §2, §4
# Abl Kinase = Abl Kinase (Homo sapiens, UniProt P00519); test: Kinase panel (TABLE F), Abl Kinase; format: biochemical
# FGFR2 Kinase = FGFR2 Kinase (Homo sapiens, UniProt P21802); test: Kinase panel (TABLE F), FGFR2 Kinase; format: biochemical
# [5] = system: Epidermoid_A431 (A431, epidermoid carcinoma); test: Cell proliferation assay (ATPlite), A431; format: cell-based; settings: Homo sapiens, A-431
# Method: as §1, §2, §4
# Lung_H358 = test: Cell proliferation assay (ATPlite), H358; format: cell-based; settings: Homo sapiens, NCI-H358; TABLE C; 72 hours, 0.5% fetal bovine serum, ATP content; read-out: IC50 grading, Lung_H358
# Method: as §1, §2, §3
# [6] = system: Breast_MDAMB468 (MDA-MB-468, breast adenocarcinoma); test: Cell proliferation assay (ATPlite), MDA-MB-468; format: cell-based; settings: Homo sapiens, TABLE C, 72 hours, 0.5% fetal bovine serum, ATP content, read-out: IC50 grading, Breast_MDAMB468
# Method: as §1, §2, §4
# Ret Kinase = Ret Kinase (Homo sapiens, UniProt P07949); test: Kinase panel (TABLE F), Ret Kinase; format: biochemical
# [7] = system: Prostate_PC3 (PC-3, prostate adenocarcinoma); test: Cell proliferation assay (ATPlite), PC3; format: cell-based
# Method: as §1, §2, §4
# [8] = system: Colon_HCT116 (HCT116, colon cancer); test: Cell proliferation assay (ATPlite), HCT116; format: cell-based; settings: Homo sapiens, HCT-116; TABLE C; 72 hours, 0.5% fetal bovine serum, ATP content; read-out: IC50 grading, Colon_HCT116
# Method: as §1, §2, §4
# Sequence of FGFR2 Kinase (P21802 22-821): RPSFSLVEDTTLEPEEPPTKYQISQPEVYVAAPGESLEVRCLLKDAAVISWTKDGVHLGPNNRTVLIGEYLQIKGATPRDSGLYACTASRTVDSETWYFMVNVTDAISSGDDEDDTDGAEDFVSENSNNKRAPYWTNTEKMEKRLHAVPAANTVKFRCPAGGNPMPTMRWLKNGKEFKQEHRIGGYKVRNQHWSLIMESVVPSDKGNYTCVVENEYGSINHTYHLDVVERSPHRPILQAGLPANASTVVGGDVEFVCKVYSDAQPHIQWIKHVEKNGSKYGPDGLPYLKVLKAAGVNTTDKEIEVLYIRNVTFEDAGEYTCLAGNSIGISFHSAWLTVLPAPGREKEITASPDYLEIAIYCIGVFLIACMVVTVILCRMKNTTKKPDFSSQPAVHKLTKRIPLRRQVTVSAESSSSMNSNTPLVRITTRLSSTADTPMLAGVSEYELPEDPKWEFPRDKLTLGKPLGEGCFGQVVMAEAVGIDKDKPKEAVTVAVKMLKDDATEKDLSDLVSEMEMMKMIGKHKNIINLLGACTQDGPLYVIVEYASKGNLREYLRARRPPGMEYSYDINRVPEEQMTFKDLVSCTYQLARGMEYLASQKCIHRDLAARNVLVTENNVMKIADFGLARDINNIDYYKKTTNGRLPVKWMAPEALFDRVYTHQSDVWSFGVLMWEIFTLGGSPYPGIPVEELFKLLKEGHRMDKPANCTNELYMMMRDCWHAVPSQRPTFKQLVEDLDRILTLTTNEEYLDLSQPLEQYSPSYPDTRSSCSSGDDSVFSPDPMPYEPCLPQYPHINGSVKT
# Sequence of Ret Kinase (P07949 29-1114): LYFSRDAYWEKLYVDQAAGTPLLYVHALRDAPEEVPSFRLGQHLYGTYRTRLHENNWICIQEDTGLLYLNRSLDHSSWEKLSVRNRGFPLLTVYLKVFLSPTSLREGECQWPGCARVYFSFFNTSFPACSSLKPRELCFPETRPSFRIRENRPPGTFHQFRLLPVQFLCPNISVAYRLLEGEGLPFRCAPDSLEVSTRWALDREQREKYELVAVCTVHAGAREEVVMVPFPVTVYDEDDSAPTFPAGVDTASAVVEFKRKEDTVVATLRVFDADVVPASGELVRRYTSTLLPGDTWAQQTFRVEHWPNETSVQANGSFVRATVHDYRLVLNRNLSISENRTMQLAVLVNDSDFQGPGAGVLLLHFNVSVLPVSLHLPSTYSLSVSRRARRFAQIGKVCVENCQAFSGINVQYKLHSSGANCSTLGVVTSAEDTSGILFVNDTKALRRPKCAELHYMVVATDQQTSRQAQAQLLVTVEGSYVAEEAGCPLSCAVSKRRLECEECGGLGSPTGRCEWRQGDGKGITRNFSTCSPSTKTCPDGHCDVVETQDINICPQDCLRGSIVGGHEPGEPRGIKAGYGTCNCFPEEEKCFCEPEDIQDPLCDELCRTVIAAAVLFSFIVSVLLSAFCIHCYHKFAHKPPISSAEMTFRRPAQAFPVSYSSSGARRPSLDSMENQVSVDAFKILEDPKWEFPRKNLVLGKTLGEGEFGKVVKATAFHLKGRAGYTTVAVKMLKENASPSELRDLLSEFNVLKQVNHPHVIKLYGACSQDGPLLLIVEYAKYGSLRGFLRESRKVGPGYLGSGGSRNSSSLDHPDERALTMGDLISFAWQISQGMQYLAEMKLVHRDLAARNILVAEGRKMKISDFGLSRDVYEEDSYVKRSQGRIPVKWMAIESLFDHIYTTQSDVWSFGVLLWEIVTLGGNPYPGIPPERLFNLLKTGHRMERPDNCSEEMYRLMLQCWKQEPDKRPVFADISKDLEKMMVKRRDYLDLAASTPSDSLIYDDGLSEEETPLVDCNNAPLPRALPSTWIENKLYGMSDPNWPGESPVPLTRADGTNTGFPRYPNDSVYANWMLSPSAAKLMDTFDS
# Sequence of VEGFR2 Kinase (P35968 20-1356): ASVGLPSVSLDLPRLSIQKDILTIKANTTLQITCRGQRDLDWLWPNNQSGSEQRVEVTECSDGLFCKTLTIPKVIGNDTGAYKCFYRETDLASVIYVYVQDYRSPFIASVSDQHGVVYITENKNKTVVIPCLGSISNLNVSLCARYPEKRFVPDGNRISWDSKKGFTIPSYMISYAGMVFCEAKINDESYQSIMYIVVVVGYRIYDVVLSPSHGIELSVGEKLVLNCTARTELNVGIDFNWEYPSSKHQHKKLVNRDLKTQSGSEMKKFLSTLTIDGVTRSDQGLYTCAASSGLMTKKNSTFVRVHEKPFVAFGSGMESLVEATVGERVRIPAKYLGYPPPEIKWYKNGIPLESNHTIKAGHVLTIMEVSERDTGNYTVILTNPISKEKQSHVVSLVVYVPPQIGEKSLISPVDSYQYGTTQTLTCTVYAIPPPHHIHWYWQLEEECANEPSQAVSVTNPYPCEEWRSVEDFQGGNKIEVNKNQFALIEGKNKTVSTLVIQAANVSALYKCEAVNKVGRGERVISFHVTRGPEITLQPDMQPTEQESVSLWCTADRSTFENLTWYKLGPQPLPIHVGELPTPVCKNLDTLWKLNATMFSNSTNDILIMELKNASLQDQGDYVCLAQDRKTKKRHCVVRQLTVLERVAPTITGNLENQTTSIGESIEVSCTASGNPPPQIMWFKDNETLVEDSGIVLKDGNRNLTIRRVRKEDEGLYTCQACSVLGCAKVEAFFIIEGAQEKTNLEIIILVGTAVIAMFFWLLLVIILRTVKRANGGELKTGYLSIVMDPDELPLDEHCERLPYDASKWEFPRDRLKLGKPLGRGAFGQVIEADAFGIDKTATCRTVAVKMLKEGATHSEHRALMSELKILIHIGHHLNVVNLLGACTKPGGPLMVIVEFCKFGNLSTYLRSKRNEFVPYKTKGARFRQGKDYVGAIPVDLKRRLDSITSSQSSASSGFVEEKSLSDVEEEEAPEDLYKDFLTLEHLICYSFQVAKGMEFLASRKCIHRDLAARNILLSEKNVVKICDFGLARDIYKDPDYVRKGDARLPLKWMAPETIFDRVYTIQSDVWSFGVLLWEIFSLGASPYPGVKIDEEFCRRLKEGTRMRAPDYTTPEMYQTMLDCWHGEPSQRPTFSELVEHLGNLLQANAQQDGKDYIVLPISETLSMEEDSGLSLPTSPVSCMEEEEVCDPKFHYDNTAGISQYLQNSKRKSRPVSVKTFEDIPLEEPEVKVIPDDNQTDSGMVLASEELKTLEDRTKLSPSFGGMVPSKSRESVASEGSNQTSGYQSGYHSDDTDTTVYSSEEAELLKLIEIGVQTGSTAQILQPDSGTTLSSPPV
# Sequence of FLT-3 Kinase (P36888 27-993): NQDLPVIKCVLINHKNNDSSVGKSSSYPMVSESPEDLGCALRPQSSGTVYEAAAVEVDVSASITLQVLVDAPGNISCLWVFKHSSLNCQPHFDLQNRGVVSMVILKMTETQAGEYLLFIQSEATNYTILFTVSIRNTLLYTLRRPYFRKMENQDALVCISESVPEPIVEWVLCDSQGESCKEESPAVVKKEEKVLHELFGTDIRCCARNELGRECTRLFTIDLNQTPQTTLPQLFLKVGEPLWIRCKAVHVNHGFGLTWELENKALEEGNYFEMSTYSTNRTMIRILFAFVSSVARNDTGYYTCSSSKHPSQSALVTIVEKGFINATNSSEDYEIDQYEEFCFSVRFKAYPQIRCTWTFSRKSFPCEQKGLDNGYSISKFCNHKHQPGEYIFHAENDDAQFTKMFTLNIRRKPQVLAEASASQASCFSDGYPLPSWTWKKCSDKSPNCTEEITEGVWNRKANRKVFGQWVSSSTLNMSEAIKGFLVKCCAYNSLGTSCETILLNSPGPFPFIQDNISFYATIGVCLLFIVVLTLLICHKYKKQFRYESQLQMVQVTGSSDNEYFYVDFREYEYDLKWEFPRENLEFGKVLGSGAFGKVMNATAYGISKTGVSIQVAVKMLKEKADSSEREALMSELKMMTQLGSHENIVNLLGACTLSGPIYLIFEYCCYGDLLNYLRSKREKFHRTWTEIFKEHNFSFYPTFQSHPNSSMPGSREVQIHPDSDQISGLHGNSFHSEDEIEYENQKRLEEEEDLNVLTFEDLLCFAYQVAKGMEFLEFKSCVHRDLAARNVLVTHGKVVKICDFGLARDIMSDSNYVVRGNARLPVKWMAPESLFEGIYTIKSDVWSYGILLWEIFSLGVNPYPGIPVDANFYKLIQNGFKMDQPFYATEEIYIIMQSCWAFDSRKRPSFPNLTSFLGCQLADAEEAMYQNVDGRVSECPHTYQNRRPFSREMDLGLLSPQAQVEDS
compound,measurement,setting,value
C#Cc1cccc(Nc2ncnc3cc(OC)c(OCCCCCCC(=O)NO)cc23)c1 [Compound 12],inhibition at 5 µM,VEGFR2 Kinase,64%
same,dose without significant change in body weight,[1],up to 100 mg/kg
same,IC50,Lung_H292,< 100 nM
same,IC50,Lung_H1703,100 to 1000 nM
same,IC50,[2],< 100 nM
same,IC50,Pancreas_Capan1,100 to 1000 nM
same,IC50,Lung_H1975,100 to 1000 nM
same,dose without significant change in body weight,[3],up to 200 mg/kg
same,IC50,Pancreas_CFPAC,100 to 1000 nM
same,AUC,in vivo; 20 mg/kg,3750 ng·h/mL
same,AUC,in vivo; 60 mg/kg,5720 ng·h/mL
same,Cmax,"in vivo; 60 mg/kg, Cmax (uM)",14.4 µM
same,inhibition at 5 µM,FLT-3 Kinase,85%
same,IC50,Pancreas_HPAC,1000 to 10000 nM
same,IC50,Pancreas_BxPC3,< 100 nM
same,IC50,"[4]; TABLE C, 72 hours, 0.5% fetal bovine serum, ATP content, read-out: IC50 grading, Prostate_22RV1",100 to 1000 nM
same,IC50,"[4]; TABLE D, Prostate carcinoma, read-out: IC50 grading, 22RV1",50 to 500 nM
same,inhibition at 5 µM,Abl Kinase,57%
same,inhibition at 5 µM,FGFR2 Kinase,73%
same,IC50,"[5]; TABLE C, 72 hours, 0.5% fetal bovine serum, ATP content, read-out: IC50 grading, Epidermoid_A431",100 to 1000 nM
same,IC50,"[5]; TABLE D, Epidermoid carcinoma, read-out: IC50 grading, A431",50 to 500 nM
same,IC50,Lung_H358,100 to 1000 nM
same,IC50,[6],< 100 nM
same,inhibition at 5 µM,Ret Kinase,93%
same,IC50,"[7]; TABLE C, 72 hours, 0.5% fetal bovine serum, ATP content, read-out: IC50 grading, Prostate_PC3",100 to 1000 nM
same,IC50,"[7]; TABLE D, Prostate adenocarcinoma, read-out: IC50 grading, PC-3",500 to 5000 nM
same,IC50,[8],100 to 1000 nM
